# Measured values published in US20250388574A1, “HETEROCYCLIC COMPOUNDS AS TRIGGERING RECEPTOR EXPRESSED ON MYELOID CELLS 2 AGONISTS AND METHODS OF USE” (AMGEN INC., priority 2020, published 2025).
# Target: hTREM2 (Homo sapiens, UniProt Q9NZC2)
# Assay: Phospho-Syk AlphaScreen/AlphaLISA assay in TREM2 and DAP12 overexpressing HEK293 cells (Example A1)
# Format: cell-based
# Parameters: expressed in transfected cells
# Details: HEK293 cells; for EC50: read-out: hTREM2 EC50
# Experimental: Pharmacological measurements of TREM2 signaling through DAP12 were made with TREM2 and DAP12 overexpressing HEK293 cells stable cell lines that had been single-cell cloned (“TREM2/DAP12-HEK”). The readout of the TREM2 signaling utilized Perkin Elmer AlphaScreen/AlphaLISA technology monitoring the phosphorylation levels of the Syk kinase. TREM2/DAP12-HEK cell lines were cultured in DMEM-F12 (Corning 10-092-CM) supplemented with 1× Penicillin/Streptomycin (Corning 30-002-CI), 1× GlutaMAX (Gibco 35050-061), and 10% Fetal Bovine Serum (Life Technologies 10099) referred to as “HEK Culture Medium”. Suspensions of TREM2/DAP12-HEK cells were prepared in HEK Culture Medium and dispensed into 384-well poly-D-lysine coated microplates (Corning 354661) at a density of 20,000 cells/well using a Multidrop Combi peristaltic microplate dispenser (Thermo), 25 uL volume of cell suspension/well. Plates containing cells were then incubated for 20 hours in a humidified cell culture incubator at 37° C. with 5% CO2 (Thermo). […] Assay Buffer contained diluted test articles (in 1% final DMSO concentration for compounds) or 100 nM anti-human/mouse TREM2 antibody (R&D Systems MAB17291) as a positive control, 100 nM or rat IgG2B isotype Ab as a negative control (R&D Systems MAB0061). Incubated the plates with test articles and controls for 45 minutes at room temperature and then aspirated/removed the medium from each well of the plates. Used a Multidrop Combi peristaltic liquid handler (Thermo) to dispense 15 uL/well of “Cell Lysis Immunoassay Buffer”. The Cell Lysis Immunoassay Buffer contained M-PER Mammalian Protein Extraction Reagent (Pierce/ThermoFisher 78505), 1× Halt Phosphatase Inhibitor Cocktail (ThermoFisher #78427), 0.1875 nM anti-phospho-Syk ([…]/526) ([…]) rabbit mAb (Cell Signaling Technologies catalog #2710), and 1.5 nM biotinylated Mouse anti-human Syk (4D10) antibody (BD Biosciences, catalog #624008). Incubated plates for 1 hour at room temperature after the addition of the Cell Lysis Immunoassay Buffer. Used the Multidrop Combi liquid handler to dispense 15 μL of AlphaScreen Acceptor Bead Solution containing 7.5 μg/mL anti-rabbit IgG (Fc specific) AlphaLISA Acceptor Beads (Perkin Elmer A[…]) in 1× Immunoassay buffer (Perkin Elmer A[…]) to each well of the microplates. Incubated plates for 2 hours at room temperature. Following the incubation with the AlphaLISA Acceptor Bead Solution, used a Multidrop Combi liquid handler (Thermo) to dispense 15 μL of AlphaScreen Donor Bead Solution containing 30 μg/mL of AlphaScreen Streptavidin Donor beads (Perkin Elmer 6760002B) in 1× Immunoassay buffer (Perkin Elmer A[…]) to each well of the microplates. Incubated microplates for 2 hours protected from light sources as the AlphaScreen reagents are light sensitive. Once the final incubation was completed, acquired AlphaScreen signal from the donor and acceptor beads using an Envision high throughput multi-modal microplate reader (Perkin Elmer) calibrated to the plate type with the AlphaScreen mirror and filter-set in 384-well mode, 680 nanometer excitation wavelength. The total measurement time per well was 550 milliseconds with a 180 millisecond excitation time. After reading the AlphaScreen signal for each well of the microplates, on a plate-by-plate basis, each raw test article well value (x) was normalized to a Percent of Control (“POC”) value using the following formula: […] Each plate contained 12 of each type of control wells that were used to generate the mean values. For concentration response curve analysis with test articles tested at various concentrations, the % of activation values were analyzed with 4 Parameter Logistic or Sigmoidal Dose-Response Models using GeneData Screener (GeneData, AG) or GraphPad Prism 7 (Graphpad Software, Inc.). […] This assay may be used to test any of the compounds described herein to assess and characterize a compound's ability to act as an agonist of TREM2.
# Chain of hTREM2 (Q9NZC2 19-230): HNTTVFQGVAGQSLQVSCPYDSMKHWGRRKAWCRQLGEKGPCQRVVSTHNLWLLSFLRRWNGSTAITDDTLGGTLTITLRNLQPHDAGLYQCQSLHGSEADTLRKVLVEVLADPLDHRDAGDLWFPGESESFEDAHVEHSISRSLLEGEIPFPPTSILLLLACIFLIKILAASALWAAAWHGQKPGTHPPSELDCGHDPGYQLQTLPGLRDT
# Chain of hTREM2 (O43914 22-113 partner): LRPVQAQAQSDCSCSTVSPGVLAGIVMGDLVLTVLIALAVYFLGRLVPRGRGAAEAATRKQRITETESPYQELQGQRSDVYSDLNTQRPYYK
Compound,Emax,EC50 [µM]
"Cc1nc2cc(N3CCC[C@H](c4cn[nH]c4)C3)nc(-c3ccc(Cl)cc3F)c2c(=O)n1C (single isomer, unassigned) [Example 108]",++++ (Emax>300),0.05 to 0.5
"Cc1nc2cc(N3CCO[C@H](c4ccc(Cl)cc4)C3)nc(-c3ccc(Cl)cc3F)c2c(=O)n1C (single isomer, unassigned) [Example 86]",++++ (Emax>300),0.5 to 3
"Cc1nc2cc(N3C[C@@H](C)O[C@@H](c4ccsc4)C3)nc(-c3ccc(Cl)cc3F)c2c(=O)n1C (single isomer, unassigned) [Example 73]",+++ (Emax>200 and ≤300),3 to 100
"Cc1nc2cc(N3CCC(c4nccn4C)C3)nc(-c3ccc(Cl)cc3F)c2c(=O)n1C (centres unmarked) [Example 122, 5-(4-chloro-2-fluorophenyl)-2,3-dimethyl-7-(3-(1-methyl-1H-imidazol-2-yl)-1-pyrrolidinyl)pyrido[4,3-d]pyrimidin-4(3H)-one]",+ (Emax>45 and ≤100),3 to 100
"Cc1nc2cc(N3CCCC(C4CNC(=O)C4)C3)nc(-c3ccc(Cl)cc3F)c2c(=O)n1C (centres unmarked) [Example 106, 5-(4-chloro-2-fluorophenyl)-2,3-dimethyl-7-(3-(5-oxo-3-pyrrolidinyl)-1-piperidinyl)-pyrido[4,3-d]pyrimidin-4(3H)-one]",+++ (Emax>200 and ≤300),0.05 to 0.5
"Cc1nc2cc(N3CCO[C@H](c4cnn(C)c4)C3)nc(-c3ncc(Cl)cc3F)c2c(=O)n1C [Example 196, (R)-5-(5-chloro-3-fluoropyridin-2-yl)-2,3-dimethyl-7-(2-(1-methyl-1H-pyrazol-4-yl)morpholino)pyrido[4,3-d]pyrimidin-4(3H)-one]",++++ (Emax>300),0.5 to 3
"Cc1ccc([C@H]2C[C@@H](c3cc4nc(C)n(C)c(=O)c4c(-c4ccc(Cl)cc4F)n3)CCO2)cn1 [Example 273, 5-(4-chloro-2-fluorophenyl)-2,3-dimethyl-7-((2R,4S)-2-(6-methylpyridin-3-yl)tetrahydro-2H-pyran-4-yl)pyrido[4,3-d]pyrimidin-4(3H)-one]",++++ (Emax>300),0.05 to 0.5
"CCn1cc([C@H]2CN(c3cc4nc(C)n(C)c(=O)c4c(-c4ccc(Cl)cc4F)n3)CCO2)cn1 (single isomer, unassigned) [Example 23]",++++ (Emax>300),< 0.05
"Cc1nc2cc(N3C[C@@H](C)O[C@@H](C4CC4)C3)nc(-c3ccc(Cl)cc3F)c2c(=O)n1C (single isomer, unassigned) [Example 34]",++++ (Emax>300),0.5 to 3
"Cc1nc2cc(N3CC[C@H](N(C)C)C3)nc(-c3ccc(Cl)cc3F)c2c(=O)n1C [Example 255, (S)-5-(4-chloro-2-fluorophenyl)-7-(3-(dimethylamino)pyrrolidin-1-yl)-2,3-dimethylpyrido[4,3-d]pyrimidin-4(3H)-one]",+++ (Emax>200 and ≤300),3 to 100
"COc1cc([C@H]2C[C@H](c3cc4nc(C)n(C)c(=O)c4c(-c4ccc(Cl)cc4F)n3)CCO2)ccn1 (single isomer, unassigned) [Example 174]",++++ (Emax>300),0.05 to 0.5
"CCCn1c(C)nc2cc(N3CCO[C@@H](c4cnn(C)c4)C3)nc(-c3ncc(Cl)cc3F)c2c1=O [Example 153, 5-(5-chloro-3-fluoro-2-pyridinyl)-2-methyl-7-((2S)-2-(1-methyl-1H-pyrazol-4-yl)-4-morpholinyl)-3-propylpyrido[4,3-d]pyrimidin-4(3H)-one]",++++ (Emax>300),0.05 to 0.5
"Cc1nc2cc([C@H]3CCO[C@@H](c4cccnc4)C3)nc(-c3ccc(Cl)cc3F)c2c(=O)n1C (single isomer, unassigned) [Example 177]",++++ (Emax>300),0.05 to 0.5
"Cc1nc2cc(N3CCC(F)(F)[C@@H](c4cnn(C)c4)C3)nc(-c3ccc(Cl)cc3F)c2c(=O)n1C (single isomer, unassigned) [Example 118]",+++ (Emax>200 and ≤300),0.05 to 0.5
"Cc1nc2cc(N3CCO[C@@H](c4cnn(C(CF)CF)c4)C3)nc(-c3ccc(Cl)cc3F)c2c(=O)n1C [Example 133, 5-(4-chloro-2-fluorophenyl)-7-((2S)-2-(1-(1,3-difluoro-2-propanyl)-1H-pyrazol-4-yl)-4-morpholinyl)-2,3-dimethylpyrido[4,3-d]pyrimidin-4(3H)-one]",+++ (Emax>200 and ≤300),< 0.05
"Cc1nc2cc(N3CCO[C@@H]([C@@H]4CCOC4)C3)nc(-c3ccc(Cl)cc3F)c2c(=O)n1C (single isomer, unassigned) [Example 44]",+++ (Emax>200 and ≤300),0.05 to 0.5
"Cc1nc2cc(N3CCO[C@@H](c4cnn(C)c4)C3)nc(-c3ncc(Cl)cc3F)c2c(=O)n1C [Example 216, (S)-5-(5-chloro-3-fluoropyridin-2-yl)-2,3-dimethyl-7-(2-(1-methyl-1H-pyrazol-4-yl)morpholino)pyrido[4,3-d]pyrimidin-4(3H)-one]",++++ (Emax>300),0.5 to 3
"5-(4-chloro-2-fluorophenyl)-2,3-dimethyl-7-((2R,4R)-2-(1-methyl-1H-pyrazol-4-yl)tetrahydro-2H-pyran-4-yl)pyrido[4,3-d]pyrimidin-4(3H)-one and 5-(4-chloro-2-fluorophenyl)-2,3-dimethyl-7-((2S,4S)-2-(1-methyl-1H-pyrazol-4-yl)tetrahydro-2H-pyran-4-yl)pyrido[4,3-d]pyrimidin-4(3H)-one [Example 161]",+++ (Emax>200 and ≤300),0.5 to 3
"Cc1nccc(C2CN(c3cc4nc(C)n(C)c(=O)c4c(-c4ccc(Cl)cc4F)n3)CCO2)n1 (centres unmarked) [Example 63, 5-(4-chloro-2-fluorophenyl)-2,3-dimethyl-7-(2-(2-methyl-4-pyrimidinyl)-4-morpholinyl)pyrido[4,3-d]pyrimidin-4(3H)-one]",++++ (Emax>300),0.5 to 3
"COc1cc([C@@H]2C[C@H](c3cc4nc(C)n(C)c(=O)c4c(-c4ccc(Cl)cc4F)n3)CCO2)ccn1 (single isomer, unassigned) [Example 173]",+++ (Emax>200 and ≤300),0.5 to 3
"Cc1nc2cc(N3CCO[C@@H](c4cnn(C(C)F)c4)C3)nc(-c3ccc(Cl)cc3F)c2c(=O)n1C (stereo partly drawn) [Example 129, 5-(4-chloro-2-fluorophenyl)-7-((2S)-2-(1-(1-fluoroethyl)-1H-pyrazol-4-yl)-4-morpholinyl)-2,3-dimethylpyrido[4,3-d]pyrimidin-4(3H)-one]",+++ (Emax>200 and ≤300),< 0.05
"Cc1nc2cc(N3CCO[C@@H](c4cnn(C)c4)C3)nc(-c3cc(F)ccc3F)c2c(=O)n1C [Example 228, (S)-5-(2,5-difluorophenyl)-2,3-dimethyl-7-(2-(1-methyl-1H-pyrazol-4-yl)morpholino)pyrido[4,3-d]pyrimidin-4(3H)-one]",+++ (Emax>200 and ≤300),0.5 to 3
"Cc1nc2cc(N3CC[C@H](C(F)(F)F)C3)nc(-c3ccc(Cl)cc3F)c2c(=O)n1C [Example 257, (S)-5-(4-chloro-2-fluorophenyl)-2,3-dimethyl-7-(3-(trifluoromethyl)pyrrolidin-1-yl)pyrido[4,3-d]pyrimidin-4(3H)-one]",++ (Emax>100 and ≤200),0.5 to 3
"Cc1nc2cc(N3CCO[C@@H](c4ccsc4)C3)nc(-c3ccc(Cl)cc3F)c2c(=O)n1C (single isomer, unassigned) [Example 55]",++++ (Emax>300),0.5 to 3
"Cc1nc2cc(N3CCO[C@@H](c4ccc(Cl)cc4)C3)nc(-c3ccc(Cl)cc3F)c2c(=O)n1C (single isomer, unassigned) [Example 87]",++++ (Emax>300),0.5 to 3
